Data published in ChEMBL document CHEMBL1687934, “The discovery of potent and long-acting oral factor Xa inhibitors with tetrahydroisoquinoline and benzazepine P4 motifs” (Bioorg Med Chem Lett, 2011).
Each block holds one compound with its values, some of them ahead of it.

Columns and labels:
Type in all cases: ADME, organism-based
[1] = Plasma clearance in iv or po dosed Sprague-Dawley rat
[2] = Half life in iv or po dosed Sprague-Dawley rat; settings: in vivo
[3] = Volume of distribution at steady state in iv or po dosed Sprague-Dawley rat; settings: in vivo, read-out: Vdss
[4] = Oral bioavailability in Sprague-Dawley rat; settings: in vivo

SMILES: O=C1[C@@H](NS(=O)(=O)c2ccc3cc(Cl)ccc3c2)CCN1c1ccc2c(c1)CCNC2
clearance [1]: 4 mL/min/kg | half-life [2]: 11 h | Vd [3]: 3.6 L/kg | bioavailability [4]: 24%

SMILES: O=C1[C@@H](NS(=O)(=O)/C=C/c2ccc(Cl)s2)CCN1c1ccc2c(c1)CCNC2
clearance [1]: 3 mL/min/kg | half-life [2]: 3.5 h | Vd [3]: 0.9 L/kg

SMILES: CN[C@@H](C)c1ccc(N2CC[C@H](NS(=O)(=O)c3ccc4cc(Cl)ccc4c3)C2=O)c(F)c1
clearance [1]: 1.6 mL/min/kg | half-life [2]: 18 h | Vd [3]: 2.4 L/kg | bioavailability [4]: > 10%

SMILES: O=C1[C@@H](NS(=O)(=O)c2ccc3cc[nH]c3c2)CCN1c1ccc2c(c1)CCNC2
clearance [1]: 12 mL/min/kg | half-life [2]: 6.1 h | Vd [3]: 4.1 L/kg | bioavailability [4]: < 1%

SMILES: O=C1[C@@H](NS(=O)(=O)c2ccc3cc(Cl)ccc3c2)CCN1c1cc2c(cc1F)CNCC2
clearance [1]: 1.7 mL/min/kg | half-life [2]: 7.5 h | Vd [3]: 1 L/kg | bioavailability [4]: 28%

SMILES: O=C1[C@@H](NS(=O)(=O)c2ccc3cc(Cl)ccc3c2)CCN1c1ccc2c(c1)CCCNC2
clearance [1]: 6.8 mL/min/kg | half-life [2]: 9.7 h | Vd [3]: 5.5 L/kg | bioavailability [4]: 10%

SMILES: CN1CCc2cc(N3CC[C@H](NS(=O)(=O)/C=C/c4ccc(Cl)s4)C3=O)ccc2C1
clearance [1]: 26 mL/min/kg | half-life [2]: 0.4 h | Vd [3]: 0.7 L/kg | bioavailability [4]: 33%

SMILES: O=C1[C@@H](NS(=O)(=O)/C=C/c2ccc(Cl)s2)CCN1c1cc2c(cc1F)CNCC2
clearance [1]: 1.4 mL/min/kg | half-life [2]: 4.9 h | Vd [3]: 0.5 L/kg | bioavailability [4]: 43%

SMILES: O=C1[C@@H](NS(=O)(=O)/C=C/c2ccc(Cl)s2)CCN1c1ccc2c(c1)CCCNC2
clearance [1]: 7.8 mL/min/kg | half-life [2]: 4.4 h | Vd [3]: 2.6 L/kg | bioavailability [4]: 45%

Further lines, results first:

clearance [1]: 3 mL/min/kg | half-life [2]: 3.3 h | Vd [3]: 0.9 L/kg | bioavailability [4]: 68%
SMILES: O=C1[C@@H](NS(=O)(=O)/C=C/c2ccc(Cl)s2)CCN1c1ccc2c(c1F)CCNC2

clearance [1]: 1.3 mL/min/kg | half-life [2]: 6.2 h | Vd [3]: 0.5 L/kg | bioavailability [4]: 6%
SMILES: O=C1[C@@H](NS(=O)(=O)c2ccc3c(Cl)c[nH]c3c2)CCN1c1cc2c(cc1F)CNCC2

clearance [1]: 2.7 mL/min/kg | half-life [2]: 7.8 h | Vd [3]: 1.5 L/kg | bioavailability [4]: 7%
SMILES: O=C1[C@@H](NS(=O)(=O)c2ccc3c(Cl)c[nH]c3c2)CCN1c1ccc2c(c1F)CCNC2

clearance [1]: 7.7 mL/min/kg | half-life [2]: 6.3 h | Vd [3]: 2.9 L/kg | bioavailability [4]: < 1%
SMILES: O=C1[C@@H](NS(=O)(=O)c2ccc3c(Cl)c[nH]c3c2)CCN1c1ccc2c(c1)CCNC2

clearance [1]: 2.1 mL/min/kg | half-life [2]: 6.7 h | Vd [3]: 2.4 L/kg
SMILES: O=C1[C@@H](NS(=O)(=O)c2ccc3cc(Cl)ccc3c2)CCN1c1ccc2c(c1F)CCNC2
